Source: patent US20110172433A1, “NOVEL IMINO DERIVATIVES, METHODS FOR PRODUCING THE SAME AND INSECTICIDES CONTAINING THE SAME” (priority 2008, published 2011)

System: greenhouse whitefly
Test: Greenhouse whitefly controlling effect (cucumber dip)
Assay type: in vivo, Trialeurodes vaporariorum
Settings: wettable powder per Formulation Example 2, active ingredient 100 μg/ml, 25° C., after 120 hours
Experimental: This was allowed to be inhabited with 20 adult insects of the greenhouse whitefly, covered with the stopper, and allowed to stand in a room whose temperature was constant at 25° C. After 120 hours, the number of viable insects was counted.
The overground part of the 1-leaf stage cucumber was dipped in a 100 μg/ml treatment solution obtained by a 5000-fold dilution with water of the prepared wettable powder, and air-dried, and then transferred to a plastic container having a stopper. This was allowed to be inhabited with 20 adult insects of the greenhouse whitefly, covered with the stopper, and allowed to stand in a room whose temperature was constant at 25° C. After 120 hours, the number of viable insects was counted.

Question: For O=C(/N=C1\SCCN1Cc1ccc(Cl)nc1)C(F)(F)F [Formula (12)], which lethality is on record?
Answer: The lethality was 25%.

System: cotton aphid, green peach aphid, greenhouse whitefly, two-spotted spider mite
Test: not given
Settings: in vivo

Question: For O=C(N=C1SCCN1Cc1ccc(Cl)nc1)C(Cl)(Cl)Cl [Compound 5], which pest controlling effects is on record?
Answer: The pest controlling effects was “excellent pest controlling effects”.

Question: With CCCOC(=O)N=C1SCCN1Cc1ccc(Cl)nc1 [Compound 43] as the compound, how does the pest controlling effects read?
Answer: Its pest controlling effects is “excellent pest controlling effects”.

Question: Which pest controlling effects does the source give for CC(C)OC(=O)N=C1SCCN1Cc1ccc(Cl)nc1 [Compound 44] here?
Answer: Its pest controlling effects is “excellent pest controlling effects”.

Question: With O=C(N=C1SCCN1Cc1ccc(Cl)nc1)OCCCl [Compound 45] as the compound, how does the pest controlling effects read?
Answer: Its pest controlling effects is “excellent pest controlling effects”.

Question: For CC(=O)N=C1SCCN1Cc1ccc(Cl)nc1 [Compound 72], which pest controlling effects is on record?
Answer: The pest controlling effects was “excellent pest controlling effects”.

Question: How did the pest controlling effects turn out when O=C(CCl)N=C1SCCN1Cc1ccc(Cl)nc1 [Compound 73] was run?
Answer: Its pest controlling effects is “excellent pest controlling effects”.

Question: For O=C(N=C1SCCN1Cc1ccc(Cl)nc1)C(F)F [Compound 76], which pest controlling effects is on record?
Answer: The pest controlling effects was “excellent pest controlling effects”.

Question: With COCC(=O)N=C1SCCN1Cc1ccc(Cl)nc1 [Compound 78] as the compound, how does the pest controlling effects read?
Answer: Its pest controlling effects is “excellent pest controlling effects”.

Question: For CSCCC(=O)N=C1SCCN1Cc1ccc(Cl)nc1 [Compound 90], which pest controlling effects is on record?
Answer: The pest controlling effects was “excellent pest controlling effects”.

Question: How did the pest controlling effects turn out when O=C(N=C1SCCN1Cc1ccc(Cl)nc1)C1CC1 [Compound 92] was run?
Answer: The pest controlling effects was “excellent pest controlling effects”.

Question: O=C(N=C1SCCN1Cc1ccc(Cl)nc1)C1CC1(F)F (stereo not shown) [Compound 103] was tested. Which pest controlling effects did it give?
Answer: The pest controlling effects was “excellent pest controlling effects”.

Question: With CONC(=O)N=C1SCCN1Cc1ccc(Cl)nc1 [Compound 106] as the compound, how does the pest controlling effects read?
Answer: The pest controlling effects was “excellent pest controlling effects”.

Question: How did the pest controlling effects turn out when CCOC(=O)N=C1SCCN1Cc1ccc(Cl)nc1 [Compound 113] was run?
Answer: The pest controlling effects was “excellent pest controlling effects”.

Question: O=C(N=C1SCCN1Cc1ccc(Cl)nc1)OCCF [Compound 114] was tested. Which pest controlling effects did it give?
Answer: The pest controlling effects was “excellent pest controlling effects”.

Question: O=C(N=C1SCCN1Cc1ccc(Cl)nc1)OCC(F)F [Compound 115] was tested. Which pest controlling effects did it give?
Answer: Its pest controlling effects is “excellent pest controlling effects”.

Question: COCCOC(=O)N=C1SCCN1Cc1ccc(Cl)nc1 [Compound 118] was tested. Which pest controlling effects did it give?
Answer: The pest controlling effects was “excellent pest controlling effects”.

Question: Which pest controlling effects does the source give for CSCCOC(=O)N=C1SCCN1Cc1ccc(Cl)nc1 [Compound 119] here?
Answer: Its pest controlling effects is “excellent pest controlling effects”.

Question: O=C(N=C1SCCN1Cc1ccc(Cl)nc1)OCCCF [Compound 122] was tested. Which pest controlling effects did it give?
Answer: The pest controlling effects was “excellent pest controlling effects”.

Question: Which pest controlling effects does the source give for C=CCOC(=O)N=C1SCCN1Cc1ccc(Cl)nc1 [Compound 126] here?
Answer: The pest controlling effects was “excellent pest controlling effects”.

Question: For CCCCOC(=O)N=C1SCCN1Cc1ccc(Cl)nc1 [Compound 128], which pest controlling effects is on record?
Answer: The pest controlling effects was “excellent pest controlling effects”.

Question: Which pest controlling effects does the source give for CC(C)COC(=O)N=C1SCCN1Cc1ccc(Cl)nc1 [Compound 129] here?
Answer: The pest controlling effects was “excellent pest controlling effects”.

Question: For CCC(C)OC(=O)N=C1SCCN1Cc1ccc(Cl)nc1 (stereo not shown) [Compound 130], which pest controlling effects is on record?
Answer: Its pest controlling effects is “excellent pest controlling effects”.

Question: How did the pest controlling effects turn out when CC(C)=CCOC(=O)N=C1SCCN1Cc1ccc(Cl)nc1 [Compound 135] was run?
Answer: The pest controlling effects was “excellent pest controlling effects”.

Question: For CCCCCOC(=O)N=C1SCCN1Cc1ccc(Cl)nc1 [Compound 136], which pest controlling effects is on record?
Answer: Its pest controlling effects is “excellent pest controlling effects”.

Question: O=C(N=C1SCCN1Cc1ccc(Cl)nc1)OCC1CC1 [Compound 139] was tested. Which pest controlling effects did it give?
Answer: The pest controlling effects was “excellent pest controlling effects”.

Question: O=C(N=C1SCCN1Cc1ccc(Cl)nc1)OCC1CCOC1 (stereo not shown) [Compound 144] was tested. Which pest controlling effects did it give?
Answer: The pest controlling effects was “excellent pest controlling effects”.

Question: How did the pest controlling effects turn out when O=C(N=C1SCCN1Cc1ccc(Cl)nc1)OC1CCOCC1 [Compound 146] was run?
Answer: The pest controlling effects was “excellent pest controlling effects”.
